According to paper PMC4835877, “HM71224, a novel Bruton’s tyrosine kinase inhibitor, suppresses B cell and monocyte activation and ameliorates arthritis in a mouse model: a potential drug for rheumatoid arthritis” (Arthritis Research & Therapy, 2016):
Where two headings read alike, the source gives them in different places.

Columns and labels:
[1] = test system: EGFR-overexpressed A431 cells; test: Cellular growth of EGFR-overexpressed A431 cells; type: cell-based
BTK = BTK (Homo sapiens, UniProt Q06187); test: Btk occupancy in Ramos cells (biotinylated probe); type: cell-based
Chain of BTK (Q06187 whole entry): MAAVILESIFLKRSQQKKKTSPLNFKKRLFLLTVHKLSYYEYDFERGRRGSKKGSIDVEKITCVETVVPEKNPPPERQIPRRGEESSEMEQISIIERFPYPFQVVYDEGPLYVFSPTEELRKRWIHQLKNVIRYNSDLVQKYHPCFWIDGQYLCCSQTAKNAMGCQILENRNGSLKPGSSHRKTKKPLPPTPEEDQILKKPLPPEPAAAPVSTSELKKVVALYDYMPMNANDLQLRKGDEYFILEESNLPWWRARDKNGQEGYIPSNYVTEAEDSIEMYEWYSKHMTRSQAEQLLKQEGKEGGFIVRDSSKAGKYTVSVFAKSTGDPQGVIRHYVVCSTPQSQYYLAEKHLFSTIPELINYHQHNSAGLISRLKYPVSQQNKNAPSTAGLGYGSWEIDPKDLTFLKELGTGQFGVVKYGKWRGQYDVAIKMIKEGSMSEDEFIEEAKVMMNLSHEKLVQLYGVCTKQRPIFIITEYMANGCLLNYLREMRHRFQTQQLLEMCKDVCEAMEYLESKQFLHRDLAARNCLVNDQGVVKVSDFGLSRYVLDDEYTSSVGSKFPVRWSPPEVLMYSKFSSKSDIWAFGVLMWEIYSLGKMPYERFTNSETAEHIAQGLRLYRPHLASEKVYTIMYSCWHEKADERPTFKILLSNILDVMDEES
Method: After treatment with HM71224, cells were lysed and then incubated for 1 h with 1 μM of biotinylated probe (HM71224 derivative). The lysed cells were loaded into streptavidin-coated wells and then incubated with an anti-Btk antibody (1:1000; clone number D3H5, Cell signaling Technology, Danvers, MA, USA) for 1 h, followed by a secondary HRP-conjugated antibody (1:10000; EMD Millipore Corporation, Billerica, MA, USA) at room temperature for 1 h. After washing, 100 μL of colorimetric solution (R&D systems, Minneapolis, MN, USA) was added, and the reaction was stopped 30 minutes later by addition of 100 μL of sulfuric acid (0.2 moles/L). The plate was read with the absorbance reader at 450 nm.
To measure Btk occupancy by immunoprecipitation (IP), biotinylated HM71224 probes were preincubated with cell lysates for 1 h at 4 °C. Streptavidin-coated beads were then added, and the mixture was incubated overnight at 4 °C. Immunoblotting was then performed, and band density was measured using MultiGauge V3.0 software (FUJI FILM, Tokyo, Japan). Untreated biotinylated probes were set at 100 %.

[2] = test system: activated primary human B cells; test: Surface activation marker expression by activated B cells (flow cytometry); type: cell-based; conditions: B-cell, anti-IgM F(ab')2 for 24 h
Method: Human PBMCs (10^6 cells/mL) were allowed to rest at 37 °C for 2 h. […] To examine changes in the expression of surface activation markers, cells were stained with anti-CD3-FITC (SK7; BD Biosciences), anti-CD19-PE (HIB19; BD Biosciences), anti-CD40-PE-Cy7 (5C3; BD Biosciences), anti-CD69-V450 (FN50; BD Biosciences), and anti-CD86-PerCP-Cy5.5 (2331 (FUN-1); BD Biosciences) antibodies.

human CD14+ monocytes [3] = test: Cytokine production by IC-stimulated human monocytes (ELISA); type: cell-based; conditions: heat-inactivated ICs, increasing concentrations
Method: Human monocytes were stimulated with heat-inactivated ICs at 37 °C for 30 minutes in the presence of increasing concentrations of HM71224. Human PDCs were stimulated with lipopolysaccharide (LPS) or CpG ODN 2006 (ThermoFisher Scientific) for 48 h in the absence or presence of HM71224 (1 μM). The production of tumor necrosis factor (TNF)-α, interleukin (IL)-1β, and IL-6 was then measured using a commercial ELISA (R&D Systems). […] The levels of the indicated cytokines in the culture supernatant were then measured by ELISA at 5 h post stimulation. […] The levels of the indicated cytokines in the culture supernatant were then measured by ELISA at 48 h post stimulation.*P < 0.05, **P < 0.01, and ***P < 0.001 vs. no treatment. LPS lipopolysaccharide

human CD14+ monocytes [4] = test: Osteoclast formation from human CD14+ cells (TRAP staining); type: cell-based; conditions: Monocyte, 1000 nM
Method: Isolated human CD14 cells (1 × 10^5 cells per well) were cultured in a 96-well plate at 37 °C in alpha-minimum essential medium (MEM) supplemented with 10 % FBS and 25 ng/mL M-CSF (Sigma-Aldrich) in the presence of increasing concentrations of HM71224. RANKL (100 ng/mL, Sigma-Aldrich) was added after 3 days. The medium was replaced every 3 days. On day 9, cells were fixed with 3 % formaldehyde and stained for tartrate-resistant acid phosphatase (TRAP) expression (Sigma-Aldrich). To drive osteoclast formation from bone morrow cells, BMMs (4 × 10^4 per well) were stimulated with 30 ng/mL M-CSF and 100 ng/mL RANKL in the presence of increasing concentrations of HM71224 for 4 days. TRAP+ cells with three or more nuclei were counted as osteoclasts.

CD3+ T cells = test: T cell signaling, phospho-flow of CD3/CD28-activated PBMCs; type: cell-based, human; conditions: CD3- and CD28-conjugated beads
Method: For phospho-flow, B cells were activated by crosslinking their BCRs with anti-human IgM antibodies (10 μg/mL; BD Biosciences) for 10 minutes at 37 °C. Cells were then fixed with 2 % paraformaldehyde at 37 °C for 12 minutes, permeabilized, and stained with anti-CD3-FITC (SK7; BD Biosciences), anti-CD20-PerCP-Cy5.5 (H1; BD Biosciences), anti-pBtk (Y223)-Alexa647 (N35-86; BD Biosciences), anti-pPLCγ2 (Y759)-Alexa647 (K86-689.37; BD Biosciences), anti-pSTAT1 (Y701)-Alexa647 (4a; BD Biosciences), anti-pSTAT3 (Y705)-Alexa647 (4/P-STAT3; BD Biosciences), anti-pSTAT5 (Y694)-Alexa647 (47; BD Biosciences), and anti-pERK1/2 (T202/204)-Alexa647 (20A; BD Biosciences) antibodies. The cells were then washed and analyzed on an LSR II flow cytometer (BD Biosciences). Data were analyzed using FlowJo software, version 8.8 (Treestar, Ashland, OR, USA).
Figure S5. Effect of HM71224 on human T cell signaling. […] The expression level of p-STAT1, p-STAT3, p-STAT5, and p-ERK1/2 by CD3+ T cells was then measured by phospho-flow cytometry.

Q: Which GI50 ([1]; Homo sapiens, A-431, read-out: GI50, concentration to inhibit 50 % of cellular growth, EGFR-overexpressed A431 cells) does the source give for C=CC(=O)Nc1cccc(Oc2nc(Nc3ccc(N4CCN(C)CC4)cc3)nc3ccoc23)c1 [HM71224] here?
A: 1000 nM

Q: And the GI50 ([1]; read-out: GI50, concentration to inhibit 50 % of cellular growth, EGFR-overexpressed A431 cells)?
A: > 1000 nM

Q: What about the Btk molecules occupied (BTK; 10 nM) of the same compound?
A: approximately 90%

Q: And the Btk molecules occupied (BTK; 100 nM)?
A: ~100%

Q: What about the IC50 ([2]; read-out: IC50, surface expression of CD40) of the same compound?
A: 4.2 nM

Q: What about the IC50 ([2]; read-out: IC50, surface expression of CD69) of the same compound?
A: 4.2 nM

Q: What about the IC50 ([2]; read-out: IC50, surface expression of CD86) of the same compound?
A: 7.7 nM

Q: And the “Production of TNF-α, IL-1β, and IL-6” value (human CD14+ monocytes [3])?
A: inhibited in a dose-dependent manner

Q: And the inhibition at 1 µM (human CD14+ monocytes [4])?
A: ~50%

Q: And the “T cell receptor signaling (p-STAT1, p-STAT3 and p-STAT5)” value (CD3+ T cells)?
A: not affected

Q: And the “p-ERK1/2 in CD3+ T cells” value (CD3+ T cells)?
A: inhibited
